Legend:
[1] = molecular target: T1, Amine oxidase [flavin-containing] B (Homo sapiens, UniProt P27338); details: 0.5 h, read-out: INH
T1 sequence (P27338 whole entry): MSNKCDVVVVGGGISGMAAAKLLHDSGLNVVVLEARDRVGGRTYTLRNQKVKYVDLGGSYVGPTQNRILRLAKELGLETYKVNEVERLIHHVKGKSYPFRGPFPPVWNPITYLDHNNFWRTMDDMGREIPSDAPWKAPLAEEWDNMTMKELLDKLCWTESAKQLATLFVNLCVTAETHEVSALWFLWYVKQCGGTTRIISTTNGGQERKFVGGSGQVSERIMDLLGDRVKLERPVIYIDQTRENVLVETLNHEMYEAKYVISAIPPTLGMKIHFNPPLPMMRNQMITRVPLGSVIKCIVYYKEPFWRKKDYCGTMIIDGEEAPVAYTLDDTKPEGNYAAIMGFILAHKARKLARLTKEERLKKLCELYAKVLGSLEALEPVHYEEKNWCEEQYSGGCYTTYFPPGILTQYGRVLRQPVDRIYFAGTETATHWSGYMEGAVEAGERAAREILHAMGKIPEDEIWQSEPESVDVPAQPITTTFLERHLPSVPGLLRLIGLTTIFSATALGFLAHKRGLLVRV
Description: Inhibition of human MAO-B at 1 uM preincubated with compound for 10 mins followed by substrate addition and measured after 30 mins relative to control

[2] = molecular target: T1, Amine oxidase [flavin-containing] B
Description: Inhibition of human MAO-B preincubated with compound for 10 mins followed by substrate addition and measured after 30 mins

[3] = molecular target: T2, Amine oxidase [flavin-containing] A (Homo sapiens, UniProt P21397)
T2 sequence (P21397 whole entry): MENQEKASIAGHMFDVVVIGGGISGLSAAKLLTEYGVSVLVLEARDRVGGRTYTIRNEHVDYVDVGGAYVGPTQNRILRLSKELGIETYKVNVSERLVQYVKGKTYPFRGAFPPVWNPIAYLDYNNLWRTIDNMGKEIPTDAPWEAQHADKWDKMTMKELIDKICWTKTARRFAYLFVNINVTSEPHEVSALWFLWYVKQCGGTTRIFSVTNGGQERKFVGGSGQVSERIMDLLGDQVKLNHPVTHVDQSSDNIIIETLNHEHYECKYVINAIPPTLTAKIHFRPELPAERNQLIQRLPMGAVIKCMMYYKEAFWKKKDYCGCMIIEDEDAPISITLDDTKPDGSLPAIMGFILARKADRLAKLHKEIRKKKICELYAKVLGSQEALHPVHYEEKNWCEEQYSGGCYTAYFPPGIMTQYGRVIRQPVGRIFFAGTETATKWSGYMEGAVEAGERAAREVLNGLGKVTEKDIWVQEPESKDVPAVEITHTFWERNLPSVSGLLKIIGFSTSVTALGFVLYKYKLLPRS
Description: Inhibition of human MAO-A preincubated with compound for 10 mins followed by substrate addition and measured after 30 mins

| SMILES | inhibition at 1 µM [1] [%] | IC50 [2] [nM] | IC50 [3] [nM] |
| --- | --- | --- | --- |
| COc1cccc(COc2ccc3[nH]c(CC(N)=O)nc3c2)c1 | 5.84 | – | – |
| NC(=O)Cc1nc2cc(OCc3ccccc3)ccc2[nH]1 | 14.3 | – | – |
| Cc1nc2cc(OCc3cccc(F)c3)ccc2[nH]1 | 2.8 | – | – |
| Cc1ccccc1COc1ccc2[nH]c(CC(N)=O)nc2c1 | 5.6 | – | – |
| NC(=O)Cc1nc2cc(OCc3cccc(F)c3)ccc2[nH]1 | 67.5 | 126 | 49900 |
| C#CCN(C)Cc1ccccc1 [PARGYLINE] | 62.9 | – | – |
| Cc1ccc(COc2ccc3[nH]c(CC(N)=O)nc3c2)cc1 | 8.29 | – | – |
| COc1ccc2[nH]c(CC(N)=O)nc2c1 | 0.93 | – | – |
| NC(=O)Cc1nc2cc(OCc3ccc(Cl)cc3)ccc2[nH]1 | 58.5 | 443 | 31300 |
| NC(=O)Cc1nc2cc(OCc3ccccc3F)ccc2[nH]1 | 10.1 | – | – |
| NC(=O)Cc1nc2cc(OCc3ccc(C(F)(F)F)cc3)ccc2[nH]1 | 52.2 | 161 | – |

Now from value to molecule:

| inhibition at 1 µM [1] [%] | IC50 [2] [nM] | IC50 [3] [nM] | SMILES |
| --- | --- | --- | --- |
| 67.3 | 292 | – | NC(=O)Cc1nc2cc(OCc3cccc(Cl)c3)ccc2[nH]1 |
| 28.5 | – | – | COc1ccc(NC(=O)c2ccc3[nH]c(CC(N)=O)nc3c2)cc1 |
| 24.8 | – | – | COc1ccccc1NC(=O)c1ccc2[nH]c(CC(N)=O)nc2c1 |
| 44 | – | – | NC(=O)Cc1nc2cc(C(=O)Nc3ccccc3F)ccc2[nH]1 |
| 44.4 | – | – | NC(=O)Cc1nc2cc(C(=O)Nc3ccc(F)cc3)ccc2[nH]1 |
| 29.9 | – | – | NC(=O)Cc1nc2cc(C(=O)Nc3ccccc3)ccc2[nH]1 |
| 29.6 | – | – | Cc1ccc(NC(=O)c2ccc3[nH]c(CC(N)=O)nc3c2)cc1 |
| 38.4 | – | – | NC(=O)Cc1nc2cc(C(=O)Nc3ccc(Cl)cc3)ccc2[nH]1 |
| 39.6 | – | – | NC(=O)Cc1nc2cc(C(=O)Nc3cccc(F)c3)ccc2[nH]1 |
| 47.6 | – | – | NC(=O)Cc1nc2cc(C(=O)Nc3cccc(Cl)c3)ccc2[nH]1 |
| 31.3 | – | – | Cc1ccc(NC(=O)c2ccc3[nH]c(CC(N)=O)nc3c2)cc1C |
| 31.8 | – | – | Cc1ccccc1NC(=O)c1ccc2[nH]c(CC(N)=O)nc2c1 |
| 33.7 | – | – | Cc1cccc(NC(=O)c2ccc3[nH]c(CC(N)=O)nc3c2)c1 |
| 34.6 | – | – | COc1cccc(NC(=O)c2ccc3[nH]c(CC(N)=O)nc3c2)c1 |
| 52.7 | 614 | – | Cc1cccc(COc2ccc3[nH]c(CC(N)=O)nc3c2)c1 |
| 8.15 | – | – | NC(=O)Cc1nc2cc(OCc3ccccc3Cl)ccc2[nH]1 |
| 27.2 | – | – | Cc1cccc(NC(=O)c2ccc3[nH]c(CC(N)=O)nc3c2)c1C |

— ChEMBL document CHEMBL5550170, “Discovery of novel benzimidazole derivatives as selective and reversible monoamine oxidase B inhibitors for Parkinson's disease treatment” (Eur J Med Chem, 2024)
